From patent US12357613B2, “Inhibitor for retinochoroidal disorders” (YAMAGUCHI UNIVERSITY, priority 2013, dated 2025)

Legend:
[1] = test system: murine retinal pigment epithelial cells; assay: Test on inhibition of three-dimensional collagen gel atrophy in murine retinal pigment epithelial cell; format: cell-based, mouse; conditions: 1 ng/ml TGF-B2; 0.01, 0.1 or 1 μM; gel diameter after 24 hours; FIG. 1
Description: (Test on Inhibition of Three-Dimensional Collagen Gel Atrophy in Murine Retinal Pigment Epithelial Cell)
Murine retinal pigment epithelial cells were used to assess the inhibition effect of a tested compound on three-dimensional collagen gel atrophy in accordance with the method of Nishida et al (Investigative Ophthalmology & Visual Science 42: 1247-1253 (2001)). A subretinal sheet-like pigment epithelial cell comprising a retinal pigment epithelial cell from a mouse eyeball was collected and grown in primary culture. The cultured cell was detached and collected from a culture slide with 0.05% Trypsin-EDTA. After washing twice in a serum free medium (MEM: product number 11095; Gibco), a serum-free medium was added to make a cell suspension. Type I collagen (3 mg/ml: product number 637-00653; Nitta Gelatin Inc.), 10×MEM, reconstitution buffer (product number 635-00791; Nitta Gelatin Inc.), cell suspension (1.1×10^7 cells/ml in MEM), and water were mixed on ice at the volume ratio of 7:1:1:0.2:1.8. A culture dish coated with 1% BSA was inoculated with the mixture (0.5 ml), which was incubated for one hour at 37° C. to make a collagen gel. Then, 0.5 ml each of serum free media, to which 1 ng/ml of TGF-B2 (R&D) and 0, 0.01, 0.1, or 1 μM of the benzoic acid of the invention were added, was added onto collagen gels and incubated at 37° C. The diameter of gels was measured after 24 hours. […]

[2] = test system: murine subretinal scar model; assay: Test on inhibition of murine subretinal scar formation; format: in vivo, mouse C57BL/6; conditions: 7 days after injection
Description: (Test on Inhibition of Murine Subretinal Scar Formation)
A murine subretinal scar model was produced to study whether the benzoic acid of the invention has an effect of inhibiting subretinal scar formation. A subretinal scar model in a mouse was produced by the method shown below in accordance with the method of Young-joon et al (Investigative Ophthalmology & Visual Science, 52, 6089-6095([…])).
(Production of Murine Subretinal Scar Model)
First, laser was irradiated (0.05 seconds, 200 mW, 532 nm) onto one location on the posterior pole of fundus of mouse C57BL/6 (purchased from SLC) to destroy the Bruch's membrane, which enabled infiltration of inflammatory cells from the choroid as well as creation of air bubbles subretinally.
A 33G needle was then inserted from pars plana. 0.5 μl of 4×10^7 ml thioglycollate elicited peritoneal macrophage and 1 μg, 5 μg, or 50 μg of the benzoic acid of the invention were subretinally injected. For the control, the benzoic acid of the invention was not injected (0 μg).
The subretinal area was observed and subretinal scar region was measure 7 days after injection of the macrophage and the benzoic acid of the invention described above.

CC1(C)CCC(C)(C)c2cc(Cn3cccn3)c(/C=C/c3ccc(C(=O)O)cc3)cc21 [benzoic acid of the invention, (E)-4-(2-{3-[(1H-pyrazole-1-yl)methyl]-5,5,8,8-tetramethyl-5,6,7,8-tetrahydronaphthalene-2-yl}vinyl)benzoic acid]
collagen atrophy due to TGF (diameter of collagen gel) [1]: can inhibit collagen atrophy due to TGF
subretinal scar region (fibrillation region) ([2]; 1 μg, 5 μg or 50 μg subretinally injected with macrophages, FIG. 2B): narrows as the amount of injection of the benzoic acid of the invention increases
formation of a subretinal scar (subretinal observation) ([2]; 50 μg subretinally injected with macrophages, in comparison to the control, FIG. 2A): formation of a scar was inhibited
